Laboratory results published in PMC5973626, “A secreted Heat shock protein 90 of Trichomonas vaginalis” (PLoS Neglected Tropical Diseases, 2018).

Legend:
Type in all cases: binding
[1] = biological target: T1, TV560 (cytosolic Hsp90, TVAG_153560) (Trichomonas vaginalis, UniProt A2EPR1); experiment: intrinsic tryptophan fluorescence quenching; also ATPase inhibition (IC50 […])
T1 construct: full-length, 6x-His tag fusion expressed in E. coli (721 amino acids)

[2] = biological target: T2, TV910 (Grp94 ortholog, TVAG_378910) (Trichomonas vaginalis, UniProt A2DB82); experiment: as above
T2 construct: 6x-His tag fusion expressed in E. coli
T2 sequence (A2DB82 entry or part of it): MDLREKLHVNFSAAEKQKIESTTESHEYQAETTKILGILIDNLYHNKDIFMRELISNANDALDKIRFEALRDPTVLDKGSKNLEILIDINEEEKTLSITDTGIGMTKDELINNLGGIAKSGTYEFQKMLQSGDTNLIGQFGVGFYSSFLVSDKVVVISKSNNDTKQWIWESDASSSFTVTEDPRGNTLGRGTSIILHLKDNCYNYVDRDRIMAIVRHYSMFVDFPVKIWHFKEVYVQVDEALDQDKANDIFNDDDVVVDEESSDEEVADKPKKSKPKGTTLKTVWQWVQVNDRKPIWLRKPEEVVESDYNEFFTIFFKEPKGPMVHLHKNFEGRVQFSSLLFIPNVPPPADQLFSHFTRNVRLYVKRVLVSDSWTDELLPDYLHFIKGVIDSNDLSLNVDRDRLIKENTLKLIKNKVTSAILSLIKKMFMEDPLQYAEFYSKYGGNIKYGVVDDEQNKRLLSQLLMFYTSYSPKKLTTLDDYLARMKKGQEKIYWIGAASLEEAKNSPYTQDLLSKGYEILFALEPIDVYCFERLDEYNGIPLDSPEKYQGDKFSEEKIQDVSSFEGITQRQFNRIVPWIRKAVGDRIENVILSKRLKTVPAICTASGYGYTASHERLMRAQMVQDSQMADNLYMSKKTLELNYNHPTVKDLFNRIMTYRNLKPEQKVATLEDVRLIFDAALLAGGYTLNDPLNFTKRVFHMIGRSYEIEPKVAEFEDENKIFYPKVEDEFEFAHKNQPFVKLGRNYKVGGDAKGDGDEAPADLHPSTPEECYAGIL

[3] = biological target: T1, TV560 (cytosolic Hsp90, TVAG_153560); experiment: intrinsic tryptophan fluorescence quenching; also ATPase kinetics (KM […])
[4] = biological target: T2, TV910 (Grp94 ortholog, TVAG_378910); experiment: as above

T1 sequence (A2EPR1 entry or part of it): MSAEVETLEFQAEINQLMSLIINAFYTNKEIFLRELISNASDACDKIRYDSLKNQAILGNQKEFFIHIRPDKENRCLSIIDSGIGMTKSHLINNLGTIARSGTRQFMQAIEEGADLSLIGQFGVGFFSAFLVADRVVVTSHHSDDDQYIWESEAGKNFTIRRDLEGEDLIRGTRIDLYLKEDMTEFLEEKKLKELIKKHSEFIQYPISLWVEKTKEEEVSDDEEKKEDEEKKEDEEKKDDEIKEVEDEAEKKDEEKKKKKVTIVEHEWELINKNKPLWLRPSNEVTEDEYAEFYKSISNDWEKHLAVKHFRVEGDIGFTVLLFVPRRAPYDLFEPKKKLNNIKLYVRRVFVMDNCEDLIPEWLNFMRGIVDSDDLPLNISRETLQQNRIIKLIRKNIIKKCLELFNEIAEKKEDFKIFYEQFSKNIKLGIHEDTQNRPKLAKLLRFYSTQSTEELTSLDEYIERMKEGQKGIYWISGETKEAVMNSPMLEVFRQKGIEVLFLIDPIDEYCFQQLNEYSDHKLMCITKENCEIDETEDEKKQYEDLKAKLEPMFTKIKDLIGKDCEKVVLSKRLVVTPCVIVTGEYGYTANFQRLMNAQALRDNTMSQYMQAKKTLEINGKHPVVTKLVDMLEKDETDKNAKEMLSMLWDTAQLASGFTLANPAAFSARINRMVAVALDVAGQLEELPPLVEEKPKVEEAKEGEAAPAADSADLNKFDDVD

Row | SMILES | Kd [1] [µM] | Kd [2] [µM] | Kd [3] [µM] | Kd [4] [µM]
1 | C=CCNC1=C2C[C@@H](C)C[C@H](OC)[C@H](O)[C@@H](C)/C=C(\C)[C@H](OC(N)=O)[C@@H](OC)/C=C\C=C(/C)C(=O)NC(=CC1=O)C2=O [17-AAG] | 11.5 | 15.7 | – | –
2 | Nc1ncnc2c1ncn2[C@@H]1O[C@H](COP(=O)(O)OP(=O)(O)OP(=O)(O)O)[C@@H](O)[C@H]1O [ATP] | – | – | 538 | 722
